Laboratory results: the NIST ThermoML archive (doi:10.1016/j.fluid.2006.09.025)
± gives the expanded uncertainty stated by the source.

Experiment: osmotic coefficient (dimensionless); mn = molality of the nth substance listed, in mol/kg
Details: 298.15 K, Liquid, isopiestic method

CC[N+](CC)(CC)CC.[I-] [tetraethylammonium iodide] + O
osmotic coefficient (m1 = 0.0519): 0.8954 ± 0.0053
osmotic coefficient (m1 = 0.0633): 0.8781 ± 0.0061
osmotic coefficient (m1 = 0.086): 0.8544 ± 0.0073
osmotic coefficient (m1 = 0.1019): 0.8443 ± 0.0078
osmotic coefficient (m1 = 0.1134): 0.834 ± 0.0084
osmotic coefficient (m1 = 0.1748): 0.806 ± 0.0098
osmotic coefficient (m1 = 0.1826): 0.8 ± 0.01
osmotic coefficient (m1 = 0.1916): 0.795 ± 0.01
osmotic coefficient (m1 = 0.2018): 0.794 ± 0.01
osmotic coefficient (m1 = 0.2218): 0.784 ± 0.011
osmotic coefficient (m1 = 0.2718): 0.758 ± 0.012
osmotic coefficient (m1 = 0.3586): 0.722 ± 0.014
osmotic coefficient (m1 = 0.3999): 0.714 ± 0.014
osmotic coefficient (m1 = 0.4738): 0.685 ± 0.016
osmotic coefficient (m1 = 0.5329): 0.674 ± 0.017
osmotic coefficient (m1 = 0.5415): 0.67 ± 0.017
osmotic coefficient (m1 = 0.5698): 0.662 ± 0.017
osmotic coefficient (m1 = 0.6153): 0.655 ± 0.017
osmotic coefficient (m1 = 0.7181): 0.631 ± 0.018
osmotic coefficient (m1 = 0.8456): 0.613 ± 0.02
osmotic coefficient (m1 = 0.8512): 0.609 ± 0.02
osmotic coefficient (m1 = 0.8671): 0.606 ± 0.02
osmotic coefficient (m1 = 0.9377): 0.597 ± 0.02
osmotic coefficient (m1 = 1.032): 0.583 ± 0.021
osmotic coefficient (m1 = 1.076): 0.578 ± 0.021
osmotic coefficient (m1 = 1.109): 0.574 ± 0.021
osmotic coefficient (m1 = 1.151): 0.566 ± 0.022
osmotic coefficient (m1 = 1.224): 0.558 ± 0.022
osmotic coefficient (m1 = 1.309): 0.553 ± 0.022
osmotic coefficient (m1 = 1.373): 0.546 ± 0.023
osmotic coefficient (m1 = 1.391): 0.543 ± 0.023
osmotic coefficient (m1 = 1.403): 0.544 ± 0.023
osmotic coefficient (m1 = 1.429): 0.54 ± 0.023
osmotic coefficient (m1 = 1.442): 0.537 ± 0.023

CCCC[N+](CC)(CC)CC.[I-] [butyltriethylammonium iodide] + O
osmotic coefficient (m1 = 0.0475): 0.9775 ± 0.0011
osmotic coefficient (m1 = 0.0571): 0.9735 ± 0.0013
osmotic coefficient (m1 = 0.076): 0.9668 ± 0.0017
osmotic coefficient (m1 = 0.0898): 0.9582 ± 0.0021
osmotic coefficient (m1 = 0.0991): 0.9545 ± 0.0023
osmotic coefficient (m1 = 0.1499): 0.94 ± 0.0037
osmotic coefficient (m1 = 0.1571): 0.93 ± 0.0037
osmotic coefficient (m1 = 0.1638): 0.9298 ± 0.0035
osmotic coefficient (m1 = 0.1729): 0.9266 ± 0.0037
osmotic coefficient (m1 = 0.189): 0.9199 ± 0.0041
osmotic coefficient (m1 = 0.2281): 0.9038 ± 0.0049
osmotic coefficient (m1 = 0.293): 0.8831 ± 0.0059
osmotic coefficient (m1 = 0.3288): 0.8677 ± 0.0067
osmotic coefficient (m1 = 0.38): 0.8544 ± 0.0074
osmotic coefficient (m1 = 0.4288): 0.837 ± 0.0085
osmotic coefficient (m1 = 0.435): 0.834 ± 0.0085
osmotic coefficient (m1 = 0.4582): 0.824 ± 0.0092
osmotic coefficient (m1 = 0.5067): 0.795 ± 0.01
osmotic coefficient (m1 = 0.5888): 0.77 ± 0.012
osmotic coefficient (m1 = 0.7326): 0.708 ± 0.016
osmotic coefficient (m1 = 0.7462): 0.695 ± 0.016
osmotic coefficient (m1 = 0.76): 0.691 ± 0.016
osmotic coefficient (m1 = 0.855): 0.655 ± 0.018
osmotic coefficient (m1 = 0.9926): 0.606 ± 0.02
osmotic coefficient (m1 = 1.093): 0.569 ± 0.022
osmotic coefficient (m1 = 1.132): 0.562 ± 0.022
osmotic coefficient (m1 = 1.178): 0.554 ± 0.022
osmotic coefficient (m1 = 1.305): 0.523 ± 0.024
osmotic coefficient (m1 = 1.503): 0.481 ± 0.026
osmotic coefficient (m1 = 1.645): 0.456 ± 0.027
osmotic coefficient (m1 = 1.681): 0.45 ± 0.028
osmotic coefficient (m1 = 1.738): 0.439 ± 0.028
osmotic coefficient (m1 = 1.782): 0.433 ± 0.029
osmotic coefficient (m1 = 1.811): 0.428 ± 0.029

CCCCC[N+](CC)(CC)CC.[I-] [pentyltriethylammonium iodide] + O
osmotic coefficient (m1 = 0.0539): 0.9283 ± 0.0036
osmotic coefficient (m1 = 0.0703): 0.9203 ± 0.004
osmotic coefficient (m1 = 0.0798): 0.9092 ± 0.0046
osmotic coefficient (m1 = 0.0922): 0.903 ± 0.0049
osmotic coefficient (m1 = 0.0976): 0.8923 ± 0.0054
osmotic coefficient (m1 = 0.1065): 0.891 ± 0.0055
osmotic coefficient (m1 = 0.132): 0.8799 ± 0.006
osmotic coefficient (m1 = 0.1471): 0.8712 ± 0.0065
osmotic coefficient (m1 = 0.1482): 0.8694 ± 0.0065
osmotic coefficient (m1 = 0.1501): 0.8697 ± 0.0066
osmotic coefficient (m1 = 0.2076): 0.8364 ± 0.0083
osmotic coefficient (m1 = 0.2284): 0.821 ± 0.0091
osmotic coefficient (m1 = 0.2454): 0.811 ± 0.0095
osmotic coefficient (m1 = 0.2742): 0.802 ± 0.0099
osmotic coefficient (m1 = 0.3148): 0.789 ± 0.011
osmotic coefficient (m1 = 0.3295): 0.784 ± 0.011
osmotic coefficient (m1 = 0.3456): 0.778 ± 0.011
osmotic coefficient (m1 = 0.3579): 0.77 ± 0.012
osmotic coefficient (m1 = 0.3614): 0.765 ± 0.013
osmotic coefficient (m1 = 0.4108): 0.746 ± 0.013
osmotic coefficient (m1 = 0.4718): 0.718 ± 0.014
osmotic coefficient (m1 = 0.498): 0.711 ± 0.015
osmotic coefficient (m1 = 0.514): 0.709 ± 0.015
osmotic coefficient (m1 = 0.5434): 0.699 ± 0.015
osmotic coefficient (m1 = 0.6238): 0.68 ± 0.016
osmotic coefficient (m1 = 0.6938): 0.658 ± 0.017
osmotic coefficient (m1 = 0.7814): 0.625 ± 0.019
osmotic coefficient (m1 = 0.9005): 0.595 ± 0.02
osmotic coefficient (m1 = 0.9578): 0.58 ± 0.021
osmotic coefficient (m1 = 1.015): 0.571 ± 0.022
osmotic coefficient (m1 = 1.199): 0.531 ± 0.024
osmotic coefficient (m1 = 1.359): 0.508 ± 0.025
osmotic coefficient (m1 = 1.465): 0.485 ± 0.026
osmotic coefficient (m1 = 1.549): 0.468 ± 0.027
osmotic coefficient (m1 = 1.688): 0.447 ± 0.028

CC[N+](C)(CC)CC.[I-] [methyltriethylammonium iodide] + O
osmotic coefficient (m1 = 0.0478): 0.739 ± 0.013
osmotic coefficient (m1 = 0.0576): 0.714 ± 0.014
osmotic coefficient (m1 = 0.0766): 0.673 ± 0.016
osmotic coefficient (m1 = 0.0902): 0.648 ± 0.018
osmotic coefficient (m1 = 0.0995): 0.632 ± 0.018
osmotic coefficient (m1 = 0.1505): 0.564 ± 0.022
osmotic coefficient (m1 = 0.1558): 0.556 ± 0.022
osmotic coefficient (m1 = 0.1631): 0.548 ± 0.023
osmotic coefficient (m1 = 0.1721): 0.539 ± 0.023
osmotic coefficient (m1 = 0.1879): 0.523 ± 0.024
osmotic coefficient (m1 = 0.2254): 0.488 ± 0.026
osmotic coefficient (m1 = 0.2898): 0.44 ± 0.028
osmotic coefficient (m1 = 0.324): 0.421 ± 0.029
osmotic coefficient (m1 = 0.3742): 0.391 ± 0.03
osmotic coefficient (m1 = 0.4177): 0.371 ± 0.032
osmotic coefficient (m1 = 0.4237): 0.368 ± 0.032
osmotic coefficient (m1 = 0.4447): 0.36 ± 0.032
osmotic coefficient (m1 = 0.4801): 0.347 ± 0.033
osmotic coefficient (m1 = 0.5528): 0.321 ± 0.034
osmotic coefficient (m1 = 0.6505): 0.294 ± 0.035
osmotic coefficient (m1 = 0.6561): 0.295 ± 0.035
osmotic coefficient (m1 = 0.6693): 0.291 ± 0.035
osmotic coefficient (m1 = 0.7286): 0.28 ± 0.036
osmotic coefficient (m1 = 0.8032): 0.265 ± 0.037
osmotic coefficient (m1 = 0.8482): 0.259 ± 0.037
osmotic coefficient (m1 = 0.8851): 0.255 ± 0.037
osmotic coefficient (m1 = 0.9205): 0.249 ± 0.037
osmotic coefficient (m1 = 0.9981): 0.241 ± 0.038
osmotic coefficient (m1 = 1.101): 0.232 ± 0.038
osmotic coefficient (m1 = 1.2): 0.226 ± 0.039
osmotic coefficient (m1 = 1.22): 0.224 ± 0.039
osmotic coefficient (m1 = 1.25): 0.223 ± 0.039
osmotic coefficient (m1 = 1.29): 0.22 ± 0.039
osmotic coefficient (m1 = 1.37): 0.219 ± 0.039
